The test system of this experiment is Staphylococcus aureus. The experiment in a line: Minimum inhibitory concentration of amoxicillin. Type of experiment: cell-based. The conditions noted are these: susceptible bacteria.

Values after ≈ are worked out from the molar mass of the structure shown.

Here are results for one compound from patent US10195158B2, “Bioactive oil based polyesteramide nanofibers for wound healing applications” (Council of Scientific and Industrial Research, priority 2014, dated 2019).

One may read the MIC as the lowest concentration that inhibits growth of the organism. `CC1(C)S[C@@H]2[C@H](NC(=O)[C@H](N)c3ccc(O)cc3)C(=O)N2[C@H]1C(=O)O` [Amoxicillin] yielded an MIC of 0.05 to 8 µg/mL (≈ 0.137 to 21.9 µM).
